Data set [1] in a line: Aqueous solubility at pH 1.2 and pH 6.8. The data set is classed as physicochemical. The conditions noted are these: aqueous solution.
The target in the next data set is human TRPV1 (Homo sapiens (Human), UniProt Q8NER1). The data set can be described thus: Capsaicin-based assay, Protocol 2, TRPV1/CHO cells (hCAP-CHO), Fluo-4 FLIPR. The data set is classed as cell-based. The conditions noted are these: 100 nM capsaicin, mean ± SEM. In outline:
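CHO cells stably transfected with human TRPV1 cDNA (G418-selected) were loaded with 3 μM Fluo-4 for 1 h, washed, then read on FLIPR with 15 s baseline before additions. Compound tested at final 100 μM to 1.5625 μM against capsaicin stimulation; calcium fluorescence time course curve-fitted.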

The nature of data set [2]: In vivo assay of body temperature increase (rectal body temperature). Details: species or system rat. To be noted: rats, oral, 10 mL/kg of 1 mg/mL in 0.5% methylcellulose; greatest ΔTb versus vehicle control at 0.5, 1 or 2 hrs. The method, boiled down: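 Male Crl/SD rats (7 weeks), acclimated and preselected for rectal temperature 37.0–37.7° C., given compound orally once at 1 mg/mL in 0.5% methylcellulose, 10 mL/kg. Rectal temperature by thermistor at 0.5, 1 and 2 h post-dose; ΔTb = treated group mean minus vehicle group mean, maximum across time points reported.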

Setting [3] is: pH 1.2, simulated gastric fluid, read-out: aqueous solubility at pH 1.2.
Where [4] appears, read: pH 6.8, aqueous buffer, read-out: aqueous solubility at pH 6.8.

Results on ten compounds are retold here after patent US9273043B2, “TRPV1 antagonists including dihydroxy substituent and uses thereof” (Purdue Pharma L.P., priority 2011, dated 2016).

A word on the solubility: it is the dissolved amount per volume that the medium holds. By IC50 is commonly meant the concentration that gives 50% inhibition.

Values after ≈ are worked out from the molar mass of the structure shown. Read-outs that look alike come from different tables or passages of the source.

human TRPV1, sequence (Q8NER1 whole entry, looked up): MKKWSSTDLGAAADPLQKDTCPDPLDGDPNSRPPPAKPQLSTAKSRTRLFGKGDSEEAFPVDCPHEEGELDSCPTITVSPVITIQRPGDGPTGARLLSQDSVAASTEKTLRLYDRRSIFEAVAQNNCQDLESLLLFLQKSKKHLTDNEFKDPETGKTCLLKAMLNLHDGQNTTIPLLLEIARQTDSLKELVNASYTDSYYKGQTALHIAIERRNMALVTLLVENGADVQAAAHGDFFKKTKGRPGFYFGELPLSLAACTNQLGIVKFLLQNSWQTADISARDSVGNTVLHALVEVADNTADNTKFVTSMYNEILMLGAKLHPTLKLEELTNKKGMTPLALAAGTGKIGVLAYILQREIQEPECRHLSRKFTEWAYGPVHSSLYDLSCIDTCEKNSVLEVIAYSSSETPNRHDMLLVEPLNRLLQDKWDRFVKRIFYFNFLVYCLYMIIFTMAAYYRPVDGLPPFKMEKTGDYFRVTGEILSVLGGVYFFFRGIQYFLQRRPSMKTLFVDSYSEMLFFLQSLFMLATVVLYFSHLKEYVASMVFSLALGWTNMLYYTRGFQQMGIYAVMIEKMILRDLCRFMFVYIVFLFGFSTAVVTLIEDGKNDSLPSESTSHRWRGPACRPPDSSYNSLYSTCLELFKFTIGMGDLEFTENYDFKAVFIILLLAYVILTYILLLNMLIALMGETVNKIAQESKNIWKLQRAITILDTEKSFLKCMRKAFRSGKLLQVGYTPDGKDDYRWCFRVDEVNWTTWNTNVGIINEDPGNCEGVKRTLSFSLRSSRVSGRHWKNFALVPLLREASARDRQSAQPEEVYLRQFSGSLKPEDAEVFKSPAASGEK

As for `C[C@H]1CN(c2ncc([C@H](O)CO)cc2F)CCN1C(=O)Nc1nc2ccccc2s1` [A122(a), (S)—N-(benzo[d]thiazol-2-yl)-4-(5-((S)-1,2-dihydroxyethyl)-3-fluoropyridin-2-yl)-2-methylpiperazine-1-carboxamide], the solubility in data set [1] (setting [3]) and in data set [1] (setting [4]) was more than 50 µM in each case. Besides, the 50% inhibitory concentration (IC50) on human TRPV1 was 177 ± 69 nM. Further, in data set [2], the “ΔTb, body temperature increase” value stood at 0.4 °C.
Take `C[C@@H]1CN(C(=O)Nc2nc3ccc(F)cc3s2)CCN1c1ncc([C@H](O)CO)cc1F` [A125(b), (R)-4-{5-[(S)-1,2-dihydroxyethyl]-3-fluoropyridin-2-yl}-N-(6-fluorobenzo[d]thiazol-2-yl)-3-methylpiperazine-1-carboxamide]: at human TRPV1, the half-inhibitory concentration (IC50) amounted to 112 ± 32 nM. Besides, in data set [2], the “ΔTb, body temperature increase” value worked out at 0.1 °C.
As for `Cc1ccc2nc(NC(=O)N3CCN(c4ncc([C@H](O)CO)cc4F)C[C@@H]3C)sc2c1` [A126(a), (S)-4-(5-((S)-1,2-dihydroxyethyl)-3-fluoropyridin-2-yl)-2-methyl-N-(6-methylbenzo[d]thiazol-2-yl)piperazine-1-carboxamide], the solubility in data set [1] (setting [3]) is more than 50 µM; in data set [1] (setting [4]) it was 14 µM (≈ 6.24 µg/mL). The same compound gave an IC50 on human TRPV1 of 40.2 ± 11 nM. In data set [2], the “ΔTb, body temperature increase” value came out at 0.2 °C.
The corresponding values for `C[C@H]1CN(c2ncc([C@H](O)CO)cc2F)CCN1C(=O)Nc1nc2cc(F)c(F)cc2s1` [A158(a), (S)—N-(5,6-difluorobenzo[d]thiazol-2-yl)-4-(5-((S)-1,2-dihydroxyethyl)-3-fluoropyridin-2-yl)-2-methylpiperazine-1-carboxamide] are more than 50 µM, 5 µM (≈ 2.34 µg/mL), 62.4 ± 13.8 nM and 0.4 °C.
Compound `C[C@@H]1CN(C(=O)Nc2nc3cc(F)c(F)cc3s2)CCN1c1ncc([C@H](O)CO)cc1F` [AE, (R)—N-(5,6-difluorobenzo[d]thiazol-2-yl)-4-{5-[(S)-1,2-dihydroxyethyl]-3-fluoropyridin-2-yl}-3-methylpiperazine-1-carboxamide] returned an IC50 against human TRPV1 of 68 ± 17 nM. Also, in data set [2], the “ΔTb, body temperature increase” value worked out at 0.5 °C.
Regarding `C[C@H](O)[C@@H](O)c1cnc(N2CCN(C(=O)Nc3nc4cc(F)c(F)cc4s3)C[C@H]2C)c(F)c1` [B158(j), (R)—N-(5,6-difluorobenzo[d]thiazol-2-yl)-4-{5-[(1S,2S)-1,2-dihydroxypropyl]-3-fluoropyridin-2-yl}-3-methylpiperazine-1-carboxamide], the 50% inhibitory concentration (IC50) against human TRPV1 is 49 ± 10 nM. In addition, in data set [2], the “ΔTb, body temperature increase” value worked out at 0.1 °C.
`C[C@H](O)[C@@H](O)c1cnc(N2CCN(C(=O)Nc3nc4ccc(F)cc4s3)CC2)c(Cl)c1` [C4(r), 4-{3-Chloro-5-[(1S,2S)-1,2-dihydroxypropyl]pyridin-2-yl}-N-(6-fluorobenzo[d]thiazol-2-yl)piperazine-1-carboxamide] returned an IC50 on human TRPV1 of 42.8 ± 2 nM. In addition, in data set [2], the “ΔTb, body temperature increase” value turned out to be 0.3 °C.
For `C[C@H](O)[C@@H](O)c1cnc(N2CCN(C(=O)Nc3nc4ccc(F)cc4s3)CC2)c(F)c1` [C125(r), 4-(5-((1S,2S)-1,2-dihydroxypropyl)-3-fluoropyridin-2-yl)-N-(6-fluorobenzo[d]thiazol-2-yl)piperazine-1-carboxamide], the values for the solubility in data set [1] (setting [3]) and in data set [1] (setting [4]) were more than 50 µM and 3 µM (≈ 1.35 µg/mL), respectively. At human TRPV1, this compound gave a concentration for half-maximal inhibition (IC50) of 99 ± 24 nM. The “ΔTb, body temperature increase” value in data set [2] is 0.3 °C.
The corresponding values for `Cc1ccc2nc(NC(=O)N3CCN(c4ncc([C@H](O)[C@H](C)O)cc4F)CC3)sc2c1` [C126(r), 4-[5-((1S,2S)-1,2-Dihydroxy-propyl)-3-fluoro-pyridin-2-yl]piperazine-1-carboxylic acid (6-methyl-benzothiazol-2-yl)-amide] are more than 50 µM, 4 µM (≈ 1.78 µg/mL), 71 ± 20 nM and 0.4 °C.
On human TRPV1, `Cc1cc2nc(NC(=O)N3CCN(c4ncc([C@H](O)[C@H](C)O)cc4F)CC3)sc2cc1C` [C170(r), 4-(5-((1S,2S)-1,2-dihydroxypropyl)-3-fluoropyridin-2-yl)-N-(5,6-dimethylbenzo[d]thiazol-2-yl)piperazine-1-carboxamide] came in with a concentration for half-maximal inhibition (IC50) of 89 ± 34 nM. For the same compound, the “ΔTb, body temperature increase” value in data set [2] came out at 0.2 °C.
